Measurements: the supplement of paper PMC10307832

Experiments:
Assay in all cases: relative viability (nuclei count vs DMSO), 5 days (fraction); higher = more cells survive
MK-8033 + Bortezomib = compound: Cn1cc(-c2cnc3ccc4ccc(CS(=O)(=O)NCc5ccccn5)cc4c(=O)c3c2)cn1 [MK-8033] + CC(C)C[C@H](NC(=O)[C@H](Cc1ccccc1)NC(=O)c1cnccn1)B(O)O [Bortezomib] (partner 0.002 µM)
Outline: (§1)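 The day after seeding in 1536-well plates, lung cancer cell lines were treated by pin tool with a single drug, or with a fixed anchor-drug dose together with five library-drug doses (not always all listed) in √10 steps. After 5 days, a combined fix-and-stain solution (final 0.05% Triton X-100, 1% formaldehyde, 1 ug/ml Hoechst) was added. Nuclei counted on 4× images gave relative viability as treated counts over vehicle counts, reported as the median of duplicate plates.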

Irinotecan + Pemetrexed = compound: CCc1c2c(nc3ccc(OC(=O)N4CCC(N5CCCCC5)CC4)cc13)-c1cc3c(c(=O)n1C2)COC(=O)[C@]3(O)CC [Irinotecan] + Nc1nc2[nH]cc(CCc3ccc(C(=O)N[C@@H](CCC(=O)O)C(=O)O)cc3)c2c(=O)[nH]1 [Pemetrexed] (partner 0.2 µM)
Outline: as §1

MK-8033 + Tozasertib = compound: Cn1cc(-c2cnc3ccc4ccc(CS(=O)(=O)NCc5ccccn5)cc4c(=O)c3c2)cn1 [MK-8033] + Cc1cc(Nc2cc(N3CCN(C)CC3)nc(Sc3ccc(NC(=O)C4CC4)cc3)n2)n[nH]1 [Tozasertib] (partner 0.1 µM)
Outline: as §1

MK-8033 + Lapatinib = compound: Cn1cc(-c2cnc3ccc4ccc(CS(=O)(=O)NCc5ccccn5)cc4c(=O)c3c2)cn1 [MK-8033] + CS(=O)(=O)CCNCc1ccc(-c2ccc3ncnc(Nc4ccc(OCc5cccc(F)c5)c(Cl)c4)c3c2)o1 [Lapatinib] (partner 2 µM)
Outline: as §1

Cell Line	relative viability (MK-8033 + Bortezomib; first compound 0.02 µM)	relative viability (MK-8033 + Bortezomib; first compound 0.06325 µM)	relative viability (MK-8033 + Bortezomib; first compound 0.2 µM)	relative viability (MK-8033 + Bortezomib; first compound 0.6325 µM)	relative viability (MK-8033 + Bortezomib; first compound 2 µM)	relative viability (Irinotecan + Pemetrexed; first compound 0.6325 µM)	relative viability (Irinotecan + Pemetrexed; first compound 2 µM)	relative viability (Irinotecan + Pemetrexed; first compound 6.325 µM)	relative viability (Irinotecan + Pemetrexed; first compound 20 µM)	relative viability (MK-8033 + Tozasertib; first compound 0.02 µM)	relative viability (MK-8033 + Tozasertib; first compound 0.06325 µM)	relative viability (MK-8033 + Tozasertib; first compound 0.2 µM)	relative viability (MK-8033 + Tozasertib; first compound 0.6325 µM)	relative viability (MK-8033 + Tozasertib; first compound 2 µM)	relative viability (MK-8033 + Lapatinib; first compound 0.02 µM)	relative viability (MK-8033 + Lapatinib; first compound 0.06325 µM)	relative viability (MK-8033 + Lapatinib; first compound 0.2 µM)	relative viability (MK-8033 + Lapatinib; first compound 0.6325 µM)	relative viability (MK-8033 + Lapatinib; first compound 2 µM)
HCC-44	0.9	0.838	0.803	0.907	0.833	0.617	0.721	0.549	0.488	0.886	0.837	0.771	0.729	0.813	1.02	1.02	0.943	0.999	1
NCI-H441	0.396	0.309	0.378	0.67	0.929	0.261	0.178	0.222	0.241	0.578	0.568	0.62	0.605	0.475					
Calu-6	0.959	1.03	1.04	0.955	1.01										1.06	1.03	0.971	1.15	1.19
CAL-12T	0.935	0.946	0.876	1.16	1.01	1.14	0.995	0.355	0.234	0.317	0.29	0.28	0.311	0.266	0.604	0.566	0.601	0.868	0.591
HCC-78	0.446	0.38	0.47	0.478	0.557	0.87	0.99	0.897	0.94	0.482		0.414	1.83	0.404	0.765	0.811	0.65		0.94
NCI-H2170						0.277	0.245	0.238	0.151	0.662	0.702	0.634	0.695	0.628	0.272	0.263	0.254	0.311	0.275
NCI-H1623										0.396	0.358	0.428	0.43	0.498					
NCI-H23	0.959	0.712	0.796	1.03	1.01	0.484	0.597	0.268	0.256	0.362	0.399	0.253	0.415	0.429	1.27	0.818	0.919	1.35	1.09
COR-L 105	0.852	0.735	0.79	0.945	0.93	1.35	0.93	0.649	0.442	0.311	0.377	0.338	0.349	0.345	0.286	0.354	0.32	0.361	0.346
LOU-NH91	0.455	0.559	0.511	0.554	0.495	0.392	0.402	0.338	0.182	0.653	0.406	0.644	0.644	0.678	0.785		0.735	0.772	0.745
